Assay results: patent US20050075619A1, “Container for linezolid intravenous solution” (priority 2000, published 2005)

Experiment: loss of linezolid in IV aqueous solution during and following terminal moist heat sterilization in the container
Format: physicochemical
Details: container-solution contact surface made of at least 50% polyolefin
Method: The linezolid IV solution is formulated by heating water for injection from about 50 to about 65°. Next the sodium citrate, citric acid and dextrose are added and stirred until dissolved. An aqueous slurry of linezolid is added to the previous mixture and stirred until dissolved. The mixture is cooled to 25° with stirring. The pH is measured and adjusted if necessary. Last the mixture is brought to volume, if necessary, with water for injection. The mixture is filtered, filled into infusion containers, over wrapped and terminally moist heat sterilized.
When terminally moist heat sterilizing an IV solution, the solution is placed in the container in which (1) it will be stored and then transferred to the container from which it will ultimately be administered, or (2) stored and then ultimately administered from the same container to deliver the IV solution to the patient. Therefore, it is imperative that the pharmaceutically active ingredient (oxazolidinone, linezolid) not react with the container in which it is to be terminally moist heat sterilized and stored/stored-administered.
What is essential is that the container-solution contact surface material be primarily a polyolefin; the remainder of the container can be made from polyolefin or other materials. It is preferred that the container-solution contact surface is made of from about 50 to about 100% polyolefin. […]

loss of linezolid during and following terminal moist heat sterilization: significantly much less loss
Compound: CC(=O)NC[C@H]1CN(c2ccc(N3CCOCC3)c(F)c2)C(=O)O1 [linezolid, (S)-N-[[3-[3-fluoro-4-(4-morpholinyl)phenyl]-2-oxo-5-oxazolidinyl]methyl]acetamide]
